{"source": "PubChem BioAssay AID1963965", "about": "(Molecular Pharmacology Branch, DTP, NCI, 2024);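 note: spheroids exposed to compounds for seven days before viability read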;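 for viability, T/C: luminescence used as a proxy for viable cell amount; percent viability relative to DMSO vehicle control as 100%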", "system": "996289-038-R-J1-PDC spheroid viability", "test": "Anticancer human tumor 996289-038-R-J1-PDC patient-derived colon adenocarcinoma cell line growth inhibition [PI3K]", "conditions": "spheroids with HUVEC and MSC; for IC50: curve of first compound; for viability, T/C: stronger effect = lower value", "summary_of_the_method": "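Combination activity was assessed by viability in multicellular tumor spheroids carrying HUVEC and MSC components. Agents were tested with PI3K inhibitors from a Cmax-based top dose (or 10 microM) downward in half-log increments.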", "data": [{"smiles": "Cn1cnc2c(F)c(Nc3ccc(Br)cc3Cl)c(C(=O)NOCCO)cc21", "note": "+ CC(Nc1ccc2c(c1)OCCn1cc(N3C(=O)OCC3C(F)F)nc1-2)C(N)=O", "values": [{"measurement": "IC50", "setting": "second compound 0.00316 µM", "result": 0.285, "unit": "µM"}, {"measurement": "IC50", "setting": "second compound 0.01 µM", "result": 0.339, "unit": "µM"}, {"measurement": "IC50", "setting": "second compound 0.0316 µM", "result": 0.206, "unit": "µM"}, {"measurement": "IC50", "setting": "second compound 0.1 µM", "result": 0.0911, "unit": "µM"}, {"measurement": "IC50", "setting": "second compound 0.316 µM", "result": 0.0389, "unit": "µM"}, {"measurement": "IC50", "setting": "second compound 1 µM", "result": 0.0252, "unit": "µM"}, {"measurement": "viability, T/C", "setting": "second compound 0.00316 µM, first compound 0.00949 µM", "result": 100, "unit": "%"}, {"measurement": "viability, T/C", "setting": "second compound 0.00316 µM, first compound 0.03 µM", "result": 84.9, "unit": "%"}, {"measurement": "viability, T/C", "setting": "second compound 0.00316 µM, first compound 0.0949 µM", "result": 64, "unit": "%"}, {"measurement": "viability, T/C", "setting": "second compound 0.00316 µM, first compound 0.3 µM", "result": 51, "unit": "%"}, {"measurement": "viability, T/C", "setting": "second compound 0.00316 µM, first compound 0.949 µM", "result": 35.1, "unit": "%"}, {"measurement": "viability, T/C", "setting": "second compound 0.00316 µM, first compound 3 µM", "result": 26.2, "unit": "%"}, {"measurement": "viability, T/C", "setting": "second compound 0.01 µM, first compound 0.00949 µM", "result": 95.9, "unit": "%"}, {"measurement": "viability, T/C", "setting": "second compound 0.01 µM, first compound 0.03 µM", "result": 74.2, "unit": "%"}, {"measurement": "viability, T/C", "setting": "second compound 0.01 µM, first compound 0.0949 µM", "result": 71.6, "unit": "%"}, {"measurement": "viability, T/C", "setting": "second compound 0.01 µM, first compound 0.3 µM", "result": 49.9, "unit": "%"}, {"measurement": "viability, T/C", "setting": "second compound 0.01 µM, first compound 0.949 µM", "result": 36.3, "unit": "%"}, {"measurement": "viability, T/C", "setting": "second compound 0.01 µM, first compound 3 µM", "result": 24.7, "unit": "%"}, {"measurement": "viability, T/C", "setting": "second compound 0.0316 µM, first compound 0.00949 µM", "result": 95.3, "unit": "%"}, {"measurement": "viability, T/C", "setting": "second compound 0.0316 µM, first compound 0.03 µM", "result": 79.7, "unit": "%"}, {"measurement": "viability, T/C", "setting": "second compound 0.0316 µM, first compound 0.0949 µM", "result": 58.6, "unit": "%"}, {"measurement": "viability, T/C", "setting": "second compound 0.0316 µM, first compound 0.3 µM", "result": 44.1, "unit": "%"}, {"measurement": "viability, T/C", "setting": "second compound 0.0316 µM, first compound 0.949 µM", "result": 35.6, "unit": "%"}, {"measurement": "viability, T/C", "setting": "second compound 0.0316 µM, first compound 3 µM", "result": 23.7, "unit": "%"}, {"measurement": "viability, T/C", "setting": "second compound 0.1 µM, first compound 0.00949 µM", "result": 84.7, "unit": "%"}, {"measurement": "viability, T/C", "setting": "second compound 0.1 µM, first compound 0.03 µM", "result": 69.3, "unit": "%"}, {"measurement": "viability, T/C", "setting": "second compound 0.1 µM, first compound 0.0949 µM", "result": 47.3, "unit": "%"}, {"measurement": "viability, T/C", "setting": "second compound 0.1 µM, first compound 0.3 µM", "result": 35, "unit": "%"}, {"measurement": "viability, T/C", "setting": "second compound 0.1 µM, first compound 0.949 µM", "result": 26.7, "unit": "%"}, {"measurement": "viability, T/C", "setting": "second compound 0.1 µM, first compound 3 µM", "result": 18.5, "unit": "%"}, {"measurement": "viability, T/C", "setting": "second compound 0.316 µM, first compound 0.00949 µM", "result": 60.6, "unit": "%"}, {"measurement": "viability, T/C", "setting": "second compound 0.316 µM, first compound 0.03 µM", "result": 53.4, "unit": "%"}, {"measurement": "viability, T/C", "setting": "second compound 0.316 µM, first compound 0.0949 µM", "result": 41.8, "unit": "%"}, {"measurement": "viability, T/C", "setting": "second compound 0.316 µM, first compound 0.3 µM", "result": 31.1, "unit": "%"}, {"measurement": "viability, T/C", "setting": "second compound 0.316 µM, first compound 0.949 µM", "result": 24.9, "unit": "%"}, {"measurement": "viability, T/C", "setting": "second compound 0.316 µM, first compound 3 µM", "result": 13.7, "unit": "%"}, {"measurement": "viability, T/C", "setting": "second compound 1 µM, first compound 0.00949 µM", "result": 58.7, "unit": "%"}, {"measurement": "viability, T/C", "setting": "second compound 1 µM, first compound 0.03 µM", "result": 48, "unit": "%"}, {"measurement": "viability, T/C", "setting": "second compound 1 µM, first compound 0.0949 µM", "result": 38.4, "unit": "%"}, {"measurement": "viability, T/C", "setting": "second compound 1 µM, first compound 0.3 µM", "result": 27.4, "unit": "%"}, {"measurement": "viability, T/C", "setting": "second compound 1 µM, first compound 0.949 µM", "result": 18.9, "unit": "%"}, {"measurement": "viability, T/C", "setting": "second compound 1 µM, first compound 3 µM", "result": 11.4, "unit": "%"}]}, {"smiles": "CNC(=O)c1ccc(N2C(=S)N(c3ccc(C#N)c(C(F)(F)F)c3)C(=O)C2(C)C)cc1F", "note": "+ CC(Nc1ncnc2nc[nH]c12)c1cc2cccc(Cl)c2c(=O)n1-c1ccccc1", "values": [{"measurement": "IC50", "setting": "second compound 0.0316 µM", "result": "> 10", "unit": "µM"}, {"measurement": "IC50", "setting": "second compound 0.1 µM", "result": "> 10", "unit": "µM"}, {"measurement": "IC50", "setting": "second compound 0.316 µM", "result": "> 10", "unit": "µM"}, {"measurement": "IC50", "setting": "second compound 1 µM", "result": "> 10", "unit": "µM"}, {"measurement": "IC50", "setting": "second compound 3.16 µM", "result": "> 10", "unit": "µM"}, {"measurement": "IC50", "setting": "second compound 10 µM", "result": "> 10", "unit": "µM"}, {"measurement": "viability, T/C", "setting": "second compound 0.0316 µM, first compound 0.0316 µM", "result": 96.5, "unit": "%"}, {"measurement": "viability, T/C", "setting": "second compound 0.0316 µM, first compound 0.1 µM", "result": 104, "unit": "%"}, {"measurement": "viability, T/C", "setting": "second compound 0.0316 µM, first compound 0.316 µM", "result": 110, "unit": "%"}, {"measurement": "viability, T/C", "setting": "second compound 0.0316 µM, first compound 1 µM", "result": 110, "unit": "%"}, {"measurement": "viability, T/C", "setting": "second compound 0.0316 µM, first compound 3.16 µM", "result": 118, "unit": "%"}, {"measurement": "viability, T/C", "setting": "second compound 0.0316 µM, first compound 10 µM", "result": 119, "unit": "%"}, {"measurement": "viability, T/C", "setting": "second compound 0.1 µM, first compound 0.0316 µM", "result": 130, "unit": "%"}, {"measurement": "viability, T/C", "setting": "second compound 0.1 µM, first compound 0.1 µM", "result": 98.4, "unit": "%"}, {"measurement": "viability, T/C", "setting": "second compound 0.1 µM, first compound 0.316 µM", "result": 93.6, "unit": "%"}, {"measurement": "viability, T/C", "setting": "second compound 0.1 µM, first compound 1 µM", "result": 88.6, "unit": "%"}, {"measurement": "viability, T/C", "setting": "second compound 0.1 µM, first compound 3.16 µM", "result": 105, "unit": "%"}, {"measurement": "viability, T/C", "setting": "second compound 0.1 µM, first compound 10 µM", "result": 108, "unit": "%"}, {"measurement": "viability, T/C", "setting": "second compound 0.316 µM, first compound 0.0316 µM", "result": 107, "unit": "%"}, {"measurement": "viability, T/C", "setting": "second compound 0.316 µM, first compound 0.1 µM", "result": 106, "unit": "%"}, {"measurement": "viability, T/C", "setting": "second compound 0.316 µM, first compound 0.316 µM", "result": 102, "unit": "%"}, {"measurement": "viability, T/C", "setting": "second compound 0.316 µM, first compound 1 µM", "result": 110, "unit": "%"}, {"measurement": "viability, T/C", "setting": "second compound 0.316 µM, first compound 3.16 µM", "result": 119, "unit": "%"}, {"measurement": "viability, T/C", "setting": "second compound 0.316 µM, first compound 10 µM", "result": 103, "unit": "%"}, {"measurement": "viability, T/C", "setting": "second compound 1 µM, first compound 0.0316 µM", "result": 94.7, "unit": "%"}, {"measurement": "viability, T/C", "setting": "second compound 1 µM, first compound 0.1 µM", "result": 112, "unit": "%"}, {"measurement": "viability, T/C", "setting": "second compound 1 µM, first compound 0.316 µM", "result": 98.2, "unit": "%"}, {"measurement": "viability, T/C", "setting": "second compound 1 µM, first compound 1 µM", "result": 102, "unit": "%"}, {"measurement": "viability, T/C", "setting": "second compound 1 µM, first compound 3.16 µM", "result": 114, "unit": "%"}, {"measurement": "viability, T/C", "setting": "second compound 1 µM, first compound 10 µM", "result": 96.9, "unit": "%"}, {"measurement": "viability, T/C", "setting": "second compound 3.16 µM, first compound 0.0316 µM", "result": 96.9, "unit": "%"}, {"measurement": "viability, T/C", "setting": "second compound 3.16 µM, first compound 0.1 µM", "result": 102, "unit": "%"}, {"measurement": "viability, T/C", "setting": "second compound 3.16 µM, first compound 0.316 µM", "result": 89.6, "unit": "%"}, {"measurement": "viability, T/C", "setting": "second compound 3.16 µM, first compound 1 µM", "result": 109, "unit": "%"}, {"measurement": "viability, T/C", "setting": "second compound 3.16 µM, first compound 3.16 µM", "result": 102, "unit": "%"}, {"measurement": "viability, T/C", "setting": "second compound 3.16 µM, first compound 10 µM", "result": 110, "unit": "%"}, {"measurement": "viability, T/C", "setting": "second compound 10 µM, first compound 0.0316 µM", "result": 98.9, "unit": "%"}, {"measurement": "viability, T/C", "setting": "second compound 10 µM, first compound 0.1 µM", "result": 101, "unit": "%"}, {"measurement": "viability, T/C", "setting": "second compound 10 µM, first compound 0.316 µM", "result": 83.1, "unit": "%"}, {"measurement": "viability, T/C", "setting": "second compound 10 µM, first compound 1 µM", "result": 104, "unit": "%"}, {"measurement": "viability, T/C", "setting": "second compound 10 µM, first compound 3.16 µM", "result": 98.8, "unit": "%"}, {"measurement": "viability, T/C", "setting": "second compound 10 µM, first compound 10 µM", "result": 97.2, "unit": "%"}]}]}
